Where a name gives a salt, the structure may show the parent alone.
System: HIV-infected cells
Experiment: p24 protein production inhibiting effect (in vitro), quantitation of p24 protein by ELISA
Type: cell-based
Conditions: for content of p24 protein, Day 1: control 569542; for content of p24 protein, Day 5: control 902226; for content of p24 protein, Day 0: control 0
Protocol: p24 Protein Production Inhibiting Effect (in vitro)
Quantitation of p24 protein was conducted by ELISA.
HIV-infected cells were lysed in a lysis buffer, and were poured in predetermined constant aliquots into the individual wells of a 96-well microplate. Subsequent to adsorption of an antigen, a solution of a biotinylated anti-p24 monoclonal antibody was added. A streptavidin-labeled peroxidase was added, followed by the addition of a substrate for staining. One, three and five days later or 2 and 4 days later, a terminating solution was added to terminate the reaction. Concerning each of the wells, the absorbance at 450 nm was measured to determine the content of p24 protein in the well.

[1] = Table 5, compound at 1.60 µg/mℓ, control 349386
[2] = Table 5, compound at 1.60 µg/mℓ, control 435119

`O=S(=O)(c1cccc2c(O)nccc12)N1CCCNCC1` [Example 6, 1-(1-Hydroxy-5-isoquinolinesulfonyl)hexahydro-1H-1,4-diazepine·monohydrochloride] was tested. Which “content of p24 protein, Day 1” value (Table 1, compound at 20 µg/m) did it give?
Its value is 551489 pg/mL.

And the “content of p24 protein, Day 2” value (Table 1, compound at 20 µg/m, control 881594)?
Its value is 645621 pg/mL.

What about the “content of p24 protein, Day 5” value (Table 1, compound at 20 µg/m) of the same compound?
Its value is 698489 pg/mL.

How did the “content of p24 protein, Day 0” value (Table 2, compound at 8 µg/mℓ) turn out when `CCCCCCOc1ncc(C)c2c(S(=O)(=O)N3CCCNCC3)cccc12` [Example 14, 1-(1-n-Hexyloxy-4-methyl-5-isoquinolinesulfonyl)hexahydro-1H-1,4-diazepine] was run?
Its value is 0 pg/m.

What about the “content of p24 protein, Day 2” value (Table 2, compound at 8 µg/mℓ, control 46732) of the same compound?
Its value is 1022 pg/m.

And the “content of p24 protein, Day 4” value (Table 2, compound at 8 µg/mℓ, control 104484)?
Its value is 0 pg/m.

With `CCCCCCCCOc1ncc(C)c2c(S(=O)(=O)N3CCCNCC3)cccc12` [Example 20, 1-(4-Methyl-1-n-octyloxy-5-isoquinolinesulfonyl)hexahydro-1H-1,4-diazepine] as the compound, how does the “content of p24 protein, Day 4” value (Table 4, compound at 0.32 µg/mℓ, control 38991) read?
The value was 31250 pg/mL.

And the “content of p24 protein, Day 2” value (Table 4, compound at 0.32 µg/mℓ, control 58304.5)?
The value was 31250 pg/mL.

What does the source list for `CCCCCCCCCCCCCCCCCCOc1ncc(C)c2c(S(=O)(=O)N3CCCNCC3)cccc12` [Example 21, 1-(4-Methyl-1-n-octadecyloxy-5-isoquinolinesulfonyl)hexahydro-1H-1,4-diazepine]?
content of p24 protein, Day 4 (Table 4, compound at 0.16 µg/mℓ, control 38991): 31250 pg/mL; content of p24 protein, Day 2 (Table 4, compound at 0.16 µg/mℓ, control 58304.5): 31250 pg/mL

How did the “content of p24 protein, Day 4” value (Table 4, compound at 1.60 µg/mℓ, control 38991) turn out when `Cc1cnc(OC(C)C)c2cccc(S(=O)(=O)N3CCCNCC3)c12` [Example 22, 1-(1-Isopropyloxy-4-methyl-5-isoquinolinesulfonyl)hexahydro-1H-1,4-diazepine] was run?
Its value is 20897 pg/mL.

What about the “content of p24 protein, Day 2” value (Table 4, compound at 1.60 µg/mℓ, control 58304.5) of the same compound?
Its value is 17405 pg/mL.

What does the source list for `CCCCC(CC)COc1ncc(C)c2c(S(=O)(=O)N3CCCNCC3)cccc12` (stereo not shown) [Example 25, 1-(1-(2-Ethyl)hexyloxy-4-methyl-5-isoquinolinesulfonyl)hexahydro-1H-1,4-diazepine]?
content of p24 protein, Day 4 (Table 4, compound at 4.00 µg/mℓ, control 38991): 16416 pg/mL; content of p24 protein, Day 2 (Table 4, compound at 4.00 µg/mℓ, control 58304.5): 25557 pg/mL

`CCCCCCOc1nccc2c(S(=O)(=O)N3CCCNCC3)cccc12` [Example 28, 1-(1-Hexyloxy-5-isoquinolinesulfonyl)hexahydro-1H-1,4-diazepine] was tested. Which “content of p24 protein, Day 4” value [1] did it give?
Its value is 69877 pg/mL.

What about the “content of p24 protein, Day 2” value [2] of the same compound?
Its value is 156250 pg/mL.

What does the source list for `Cc1cncc2cccc(S(=O)(=O)N3CCNCC3)c12` [Example 29, 1-(4-Methyl-5-isoquinolinesulfonyl)piperazine]?
content of p24 protein, Day 0 (Table 2, compound at 0.32 µg/mℓ): 0 pg/m; content of p24 protein, Day 2 (Table 2, compound at 0.32 µg/mℓ, control 46732): 69877 pg/m; content of p24 protein, Day 4 (Table 2, compound at 0.32 µg/mℓ, control 104484): 69877 pg/m

Which “content of p24 protein, Day 4” value (Table 5, compound at 3.20 µg/mℓ, control 349386) does the source give for `Cc1cnc(O)c2cccc(S(=O)(=O)N3CCCNC(C)C3)c12` (stereo not shown) [Example 36, 1-(1-Hydroxy-4-methyl-5-isoquinolinesulfonyl)-3-methylhexahydro-1H-1,4-diazepine·monohydrochloride] here?
The value was 82082 pg/mL.

And the “content of p24 protein, Day 2” value (Table 5, compound at 3.20 µg/mℓ, control 435119)?
Its value is 104484 pg/mL.

What does the source list for `CNc1ncc(C)c2c(S(=O)(=O)N3CCCNCC3)cccc12` [Example 41, 1-(4-Methyl-1-N-methylamino-5-isoquinolinesulfonyl)hexahydro-1H-1,4-diazepine]?
content of p24 protein, Day 0 (Table 2, compound at 0.8 µg/mℓ): 0 pg/m; content of p24 protein, Day 2 (Table 2, compound at 0.8 µg/mℓ, control 46732): 82082 pg/m; content of p24 protein, Day 4 (Table 2, compound at 0.8 µg/mℓ, control 104484): 66977 pg/m

With `C=CCOc1ncc(C)c2c(S(=O)(=O)N3CCCNCC3)cccc12` [Example 46, 1-(1-Allyloxy-4-methyl-5-isoquinolinesulfonyl)hexahydro-1H-1,4-diazepine] as the compound, how does the “content of p24 protein, Day 4” value (Table 5, compound at 8.00 µg/mℓ, control 349386) read?
Its value is 156250 pg/mL.

And the “content of p24 protein, Day 2” value (Table 5, compound at 8.00 µg/mℓ, control 435119)?
The value was 233662 pg/mL.

For `Cc1cnc(OCc2c(F)c(F)c(F)c(F)c2F)c2cccc(S(=O)(=O)N3CCCNCC3)c12` [Example 48, 1-(4-Methyl-1-pentafluorophenylmethyloxy-5-isoquinolinesulfonyl)hexahydro-1H-1,4-diazepine], which “content of p24 protein, Day 4” value [1] is on record?
Its value is 297434 pg/mL.

What about the “content of p24 protein, Day 2” value [2] of the same compound?
The value was 82082 pg/mL.

With `Cc1cnc(O)c2cccc(S(=O)(=O)N3CCCNCC3C)c12` (stereo not shown) [Example 51, 1-(1-Hydroxy-4-methyl-5-isoquinolinesulfonyl)2-methylhexahydro-1H-1,4-diazepine·monohydrochloride] as the compound, how does the “content of p24 protein, Day 1” value (Table 1, compound at 10 µg/m) read?
The value was 641752 pg/mL.

What about the “content of p24 protein, Day 2” value (Table 1, compound at 10 µg/m, control 881594) of the same compound?
The value was 624989 pg/mL.

And the “content of p24 protein, Day 5” value (Table 1, compound at 10 µg/m)?
The value was 566963 pg/mL.

How did the “content of p24 protein, Day 4” value (Table 5, compound at 40.0 µg/mℓ, control 349386) turn out when `CCCCCCOc1ncc(C)c2c(S(=O)(=O)N3CCCNCC3C)cccc12` (stereo not shown) [Example 53, 1-(1-n-Hexyloxy-4-methyl-5-isoquinolinesulfonyl)2-methylhexahydro-1H-1,4-diazepine] was run?
Its value is 233662 pg/mL.

And the “content of p24 protein, Day 2” value (Table 5, compound at 40.0 µg/mℓ, control 435119)?
Its value is 94822 pg/mL.

Which results are given for `O=S(=O)(c1cccc2cncc(F)c12)N1CCCNCC1` [Example 55, 1-(4-Fluoro-5-isoquinolinesulfonyl)hexahydro-1H-1,4-diazepine]?
content of p24 protein, Day 4 (Table 3, compound at 4 µg/mℓ, control 82079): 59487 pg/mL; content of p24 protein, Day 2 (Table 3, compound at 4 µg/mℓ, control 104484): 59487 pg/mL

How did the “content of p24 protein, Day 4” value (Table 4, compound at 200 µg/mℓ, control 38991) turn out when `Cc1cncc2c(S(=O)(=O)N3CCCNCC3)cccc12` [Example 66, 1-(4-Methyl-8-isoquinolinesulfonyl)hexahydro-1H-1,4-diazepine] was run?
The value was 20897 pg/mL.

And the “content of p24 protein, Day 2” value (Table 4, compound at 200 µg/mℓ, control 58304.5)?
The value was 25557 pg/mL.

From patent publication EP1074545A1, “ISOQUINOLINESULFONAMIDE DERIVATIVES AND DRUGS CONTAINING THE SAME AS THE ACTIVE INGREDIENT” (Hidaka, Hiroyoshi, priority 1998, dated 1999)
